Our source for the Binding % values is patent US10829458B2 (Araxes Pharma LLC, priority 2015, dated 2020).

Structures are written as SMILES.

For the assay, the target named is T1, KRAS G12C 1-169, his-tagged protein, GDP-loaded (Homo sapiens, UniProt P01116, G12C).
T1 construct: KRAS G12C 1-169, his-tagged protein, GDP-loaded
The assay can be described thus: Biochemical assay: covalent modification of KRAS G12C measured by mass spectrometry (RapidFire/TOF or Q-Exactive). The conditions noted are these: covalent binding to KRAS G12C. The procedure, abridged:
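Covalent adduct formation read by intact-mass spectrometry (TOF or Q Exactive Plus, charge envelopes deconvoluted into modified and unmodified species) after formic acid quench. Reactions contained 2 μM GDP-bound KRAS G12C 1-169 (his-tag) in Hepes/NaCl/MgCl2 buffer plus 10, 30 or 100 μM final compound, held 30 min, 2 h or 24 h at room temperature.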

For the compound `C=CC(=O)N1CCN(c2nc(NC3CCCN(CC4CC4)C3)nc3c(F)c(-c4c(O)cccc4F)c(Cl)cc23)CC1` (centres unmarked) [Example I-134, 1-(4-(6-chloro-2-(1-(cyclopropyl-methyl)piperidin-3-ylamino)-8-fluoro-7-(2-fluoro-6-hydroxyphenyl)quinazolin-4-yl)piperazin-1-yl) prop-2-en-1-one], the Binding % entry (compounds of structure (I)) was “+++ (+++ indicates binding activity greater than 90%)”.

In the case of `C=CC(=O)N1CCN(c2ncnc3cc(-c4c(F)cccc4C(F)F)c(Cl)cc23)CC1` [II-5, 1-(4-(6-chloro-7-(2-(difluoromethyl)-6-fluorophenyl)quinazolin-4-yl)piperazin-1-yl)prop-2-en-1-one], where the note is “compounds of structure (II)”, the Binding % result is on record as “+ (+ indicates binding activity up to 50%)”.

Take `C=CC(=O)N1CCN(c2nc(NC3CN(C(C)C)C3)nc3c(F)c(-c4c(C)ccc5[nH]ncc45)c(Cl)cc23)CC1` [Example I-173, 1-(4-(6-chloro-8-fluoro-2-((1-isopropyl-azetidin-3-yl)amino)-7-(5-methyl-1H-indazol-4-yl)quinazolin-4-yl)piperazin-1-yl) prop-2-en-1-one]: the Binding % entry (compounds of structure (I)) was “+ (+ indicates binding activity up to 50%)”.

Consider `C=CC(=O)N1CCN(c2nc(N3CC(COC)C3)nc3c(F)c(-c4c(C)ccc5[nH]ncc45)c(Cl)cc23)CC1` [Example I-152, 1-(4-(6-chloro-8-fluoro-2-(3-(methoxy-methyl)azetidin-1-yl)-7-(5-methyl-1H-indazol-4-yl)quinazolin-4-yl)piperazin-1-yl) prop-2-en-1-one], for which the Binding % result (compounds of structure (I)) is recorded as “+++ (+++ indicates binding activity greater than 90%)”.

`C=CC(=O)N1CCN(c2nc(N3CC(N(CC)CC)C3)nc3c(F)c(-c4c(C)ccc5[nH]ncc45)c(Cl)cc23)CC1` [Example I-144, 1-(4-(6-chloro-2-(3-(diethylamino)azetidin-1-yl)-8-fluoro-7-(5-methyl-1H-indazol-4-yl)quinazolin-4-yl)piperazin-1-yl) prop-2-en-1-one]: the Binding % result (compounds of structure (I)) is on record as “+++ (+++ indicates binding activity greater than 90%)”.

Regarding `C=CC(=O)N1CCN(c2nc(NC3CCN(C(C)C)CC3)nc3c(F)c(-c4c(O)cccc4F)c(Cl)cc23)CC1` [Example I-84, 1-(4-(6-chloro-8-fluoro-7-(2-fluoro-6-hydroxyphenyl)-2-(1-isopropyl-piperidin-4-ylamino)quinazolin-4-yl)piperazin-1-yl)prop-2-en-1-one], the Binding % entry (compounds of structure (I)) is on record as “+++ (+++ indicates binding activity greater than 90%)”.

For the compound `C=CC(=O)N1C[C@H](C)N(c2ncnc3c(F)c(-c4c(O)cccc4F)c(Cl)cc23)C[C@H]1C` [III-1, 1-((2R,5S)-4-(6-chloro-8-fluoro-7-(2-fluoro-6-hydroxy-phenyl)quinazolin-4-yl)-2,5-dimethyl-piperazin-1-yl)prop-2-en-1-one], the Binding % result (compounds of structure (III)) is “++ (++ indicates activity from 50% to 90%)”.

Turning to `C=CC(=O)N1CCN(c2nc(NC3CCN(C(C)C)CC3)nc3c(F)c(-c4c(C)ccc5[nH]ncc45)c(Cl)cc23)CC1` [Example I-136, 1-(4-(6-chloro-8-fluoro-2-(1-isopropyl-piperidin-4-ylamino)-7-(5-methyl-1H-indazol-4-yl)quinazolin-4-yl)piperazin-1-yl) prop-2-en-1-one], the Binding % result (compounds of structure (I)) is reported as “+++ (+++ indicates binding activity greater than 90%)”.

As for `C=CC(=O)N1CCN(c2nc(OCCN3CCOCC3)nc3c(F)c(-c4cc(O)cc5ccccc45)c(Cl)cc23)CC1` [Example I-14, 1-(4-(6-chloro-8-fluoro-7-(3-hydroxy-naphthalen-1-yl)-2-(2-morpholino-ethoxy)quinazolin-4-yl)piperazin-1-yl)prop-2-en-1-one], the Binding % result (compounds of structure (I)) was “+++ (+++ indicates binding activity greater than 90%)”.

On to `C=CC(=O)N1CCN(c2nc(OCCN3CCOCC3)nc3c(F)c(-c4c(F)cccc4OC)c(Cl)cc23)CC1` [Example I-39, 1-(4-(6-chloro-8-fluoro-7-(2-fluoro-6-methoxyphenyl)-2-(2-morpholino-ethoxy)quinazolin-4-yl)piperazin-1-yl)prop-2-en-1-one], for which the Binding % result (compounds of structure (I)) is listed as “+++ (+++ indicates binding activity greater than 90%)”.

Consider `C=CC(=O)N1CCN(c2nc(OC3CCN(CC(F)(F)F)C3)nc3c(F)c(-c4c(O)cccc4F)c(Cl)cc23)CC1` (centres unmarked) [Example I-26, 1-(4-(6-chloro-8-fluoro-7-(2-fluoro-6-hydroxyphenyl)-2-(1-(2,2,2-trifluoroethyl)pyrrolidin-3-yloxy)quinazolin-4-yl)piperazin-1-yl)prop-2-en-1-one], for which, under “compounds of structure (I)”, the Binding % entry is “+++ (+++ indicates binding activity greater than 90%)”.

As to `C=CC(=O)N1C[C@@H](C)N(c2ncnc3c(F)c(-c4c(O)cccc4F)c(Cl)cc23)[C@@H](C)C1` (atropisomer, axis not shown) [III-36], where the note is “compounds of structure (III)”, the Binding % result is “+++ (+++ indicates binding activity greater than 90%)”.

On to `C=CC(=O)N1CCN(c2nc(CCN3CC(C)(N(C)C)C3)nc3c(F)c(-c4c(O)cccc4F)c(Cl)cc23)CC1` [Example I-198, 1-(4-(6-chloro-2-(2-(3-(dimethyl-amino)-3-methyl-azetidin-1-yl)ethyl)-8-fluoro-7-(2-fluoro-6-hydroxyphenyl)quinazolin-4-yl)piperazin-1-yl) prop-2-en-1-one], for which the Binding % entry (compounds of structure (I)) is on record as “++ (++ indicates binding activity from 50 to 90%)”.

As to `C=CC(=O)N1CCN(c2nc(OCCCN3CCC(F)(F)C3)nc3c(F)c(-c4c(O)cccc4F)c(Cl)cc23)CC1` [Example I-62, 1-(4-(6-chloro-2-(3-(3,3-difluoro-pyrrolidin-1-yl)propoxy)-8-fluoro-7-(2-fluoro-6-hydroxyphenyl)quinazolin-4-yl)piperazin-1-yl) prop-2-en-1-one], the Binding % result (compounds of structure (I)) is listed as “+++ (+++ indicates binding activity greater than 90%)”.

For `CN(C)C/C=C/C(=O)N1CCN(c2nc(OCCN3CCOCC3)nc3c(F)c(-c4cc(O)cc5ccccc45)c(Cl)cc23)CC1` [Example I-65, (E)-1-(4-(6-chloro-8-fluoro-7-(3-hydroxy-naphthalen-1-yl)-2-(2-morpholino-ethoxy)quinazolin-4-yl)piperazin-1-yl)-4-(dimethyl-amino)but-2-en-1-one], under “compounds of structure (I)”, the Binding % entry is given as “+++ (+++ indicates binding activity greater than 90%)”.

For the compound `C=CC(=O)N1CCN(c2nc(OCCN3CCOCC3=O)nc3c(F)c(-c4cc(O)cc5ccccc45)c(Cl)cc23)CC1` [Example I-57, 4-(2-(4-(4-acryloyl-piperazin-1-yl)-6-chloro-8-fluoro-7-(3-hydroxy-naphthalen-1-yl)quinazolin-2-yloxy)ethyl) morpholin-3-one], where the note is “compounds of structure (I)”, the Binding % result is “+++ (+++ indicates binding activity greater than 90%)”.

On to `C=CC(=O)N1CCN(c2nc(CCNc3ccccn3)nc3c(F)c(-c4c(O)cccc4F)c(Cl)cc23)CC1` [Example I-201, 1-(4-(6-chloro-8-fluoro-7-(2-fluoro-6-hydroxyphenyl)-2-(2-(pyridin-2-ylamino)ethyl)quinazolin-4-yl)piperazin-1-yl) prop-2-en-1-one], for which the Binding % entry (compounds of structure (I)) is on record as “++ (++ indicates binding activity from 50 to 90%)”.

For the compound `C=CC(=O)N1CCN(c2nc(OCCN(C)C)nc3c(F)c(-c4cc(O)cc5ccccc45)c(Cl)cc23)CC1` (atropisomer, axis not shown) [Example I-96, (R)-1-(4-(6-chloro-2-(2-(dimethylamino)ethoxy)-8-fluoro-7-(3-hydroxy-naphthalen-1-yl)quinazolin-4-yl)piperazin-1-yl)prop-2-en-1-one], for the setting “compounds of structure (I)”, the Binding % entry is “+ (+ indicates binding activity up to 50%)”.

Consider `C=CC(=O)N1CCN(c2nc(COCc3ncccc3F)nc3c(F)c(-c4c(O)cccc4F)c(Cl)cc23)CC1` [Example I-210, 1-(4-(6-chloro-8-fluoro-7-(2-fluoro-6-hydroxyphenyl)-2-(((3-fluoro-pyridin-2-yl)methoxy)methyl)quinazolin-4-yl)piperazin-1-yl) prop-2-en-1-one], for which the Binding % entry (compounds of structure (I)) is “+++ (+++ indicates binding activity greater than 90%)”.

For the compound `C=CC(=O)N1CCN(c2nc(NC3CCN(C)CC3)nc3c(F)c(-c4c(O)cccc4F)c(Cl)cc23)CC1` [Example I-3, 1-(4-(6-chloro-8-fluoro-7-(2-fluoro-6-hydroxyphenyl)-2-(1-methylpiperidin-4-ylamino)quinazolin-4-yl)piperazin-1-yl) prop-2-en-1-one], the Binding % entry (compounds of structure (I)) is reported as “+++ (+++ indicates binding activity greater than 90%)”.

In the case of `C=CC(=O)N1CCN(c2nc(CCN3CC(F)(F)C3)nc3c(F)c(-c4c(O)cccc4F)c(Cl)cc23)CC1` [Example I-200, 1-(4-(6-chloro-2-(2-(3,3-difluoro-azetidin-1-yl)ethyl)-8-fluoro-7-(2-fluoro-6-hydroxyphenyl)quinazolin-4-yl)piperazin-1-yl) prop-2-en-1-one], for the setting “compounds of structure (I)”, the Binding % entry is recorded as “++ (++ indicates binding activity from 50 to 90%)”.

On to `C=CC(=O)N1CCN(c2nc(OCCN3CCS(=O)(=O)CC3)nc3c(F)c(-c4c(O)cccc4F)c(Cl)cc23)CC1` [Example I-67, 1-(4-(6-chloro-8-fluoro-7-(2-fluoro-6-hydroxyphenyl)-2-(2-dioxothio-morpholino-ethoxy)quinazolin-4-yl)piperazin-1-yl)prop-2-en-1-one], for which the Binding % entry (compounds of structure (I)) was “+++ (+++ indicates binding activity greater than 90%)”.

With `C=CC(=O)N1CCN(c2nc(N3CC(N(CC)CC)C3)nc3c(F)c(-c4c(O)cccc4F)c(Cl)cc23)CC1` [Example I-131, 1-(4-(6-chloro-2-(3-(diethyl-amino)azetidin-1-yl)-8-fluoro-7-(2-fluoro-6-hydroxyphenyl)quinazolin-4-yl)piperazin-1-yl) prop-2-en-1-one], the Binding % result (compounds of structure (I)) is on record as “+++ (+++ indicates binding activity greater than 90%)”.
